The values below come from US10259810B2, “N-sulfonylated pyrazolo[3,4-b]pyridin-6-carboxamides and method of use” (AbbVie S.à.r.l., priority 2015, dated 2019).

The target in test [1] is T1, ΔF508-CFTR (Homo sapiens, UniProt P13569, DEL508-508).
T1 construct: host or cells: CFBE41o-, doxycycline-inducible
Kind of test: CFTR cell surface levels using HRP-tagged ΔF508-CFTR expressing CFBE cells, in the presence of a co-corrector. Format: cell-based. To be noted: HRP-tagged ΔF508-CFTR CFBE cells, in the presence of 3 μM co-corrector; for EC50: read-out: EC50. In a few lines:
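Chemiluminescent read-out of surface HRP (15 min, dark) after PBS washes. Activity is normalized as 100×(sample−DMSO)/(3 μM co-corrector alone−DMSO).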

Test [2] concerns the target T1, ΔF508-CFTR. Kind of test: CFTR cell surface levels using HRP-tagged ΔF508-CFTR expressing CFBE cells, intrinsic corrector capacity. Format: cell-based. Details: % Activation: concentration or dose not given beside the values. To be noted: HRP-tagged ΔF508-CFTR expressing CFBE41o- cells, compound alone (intrinsic corrector capacity), 20 hours at 33° C.; for EC50: read-out: EC50. The method, boiled down: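 Read-out: chemiluminescent HRP activity of ECL4-HRP-tagged ΔF508-CFTR at the cell surface, 15 min substrate in dark. Normalized as 100×(sample−DMSO)/(positive control−DMSO).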

T1 sequence (P13569 with tags, fused parts or gaps DEL508-508): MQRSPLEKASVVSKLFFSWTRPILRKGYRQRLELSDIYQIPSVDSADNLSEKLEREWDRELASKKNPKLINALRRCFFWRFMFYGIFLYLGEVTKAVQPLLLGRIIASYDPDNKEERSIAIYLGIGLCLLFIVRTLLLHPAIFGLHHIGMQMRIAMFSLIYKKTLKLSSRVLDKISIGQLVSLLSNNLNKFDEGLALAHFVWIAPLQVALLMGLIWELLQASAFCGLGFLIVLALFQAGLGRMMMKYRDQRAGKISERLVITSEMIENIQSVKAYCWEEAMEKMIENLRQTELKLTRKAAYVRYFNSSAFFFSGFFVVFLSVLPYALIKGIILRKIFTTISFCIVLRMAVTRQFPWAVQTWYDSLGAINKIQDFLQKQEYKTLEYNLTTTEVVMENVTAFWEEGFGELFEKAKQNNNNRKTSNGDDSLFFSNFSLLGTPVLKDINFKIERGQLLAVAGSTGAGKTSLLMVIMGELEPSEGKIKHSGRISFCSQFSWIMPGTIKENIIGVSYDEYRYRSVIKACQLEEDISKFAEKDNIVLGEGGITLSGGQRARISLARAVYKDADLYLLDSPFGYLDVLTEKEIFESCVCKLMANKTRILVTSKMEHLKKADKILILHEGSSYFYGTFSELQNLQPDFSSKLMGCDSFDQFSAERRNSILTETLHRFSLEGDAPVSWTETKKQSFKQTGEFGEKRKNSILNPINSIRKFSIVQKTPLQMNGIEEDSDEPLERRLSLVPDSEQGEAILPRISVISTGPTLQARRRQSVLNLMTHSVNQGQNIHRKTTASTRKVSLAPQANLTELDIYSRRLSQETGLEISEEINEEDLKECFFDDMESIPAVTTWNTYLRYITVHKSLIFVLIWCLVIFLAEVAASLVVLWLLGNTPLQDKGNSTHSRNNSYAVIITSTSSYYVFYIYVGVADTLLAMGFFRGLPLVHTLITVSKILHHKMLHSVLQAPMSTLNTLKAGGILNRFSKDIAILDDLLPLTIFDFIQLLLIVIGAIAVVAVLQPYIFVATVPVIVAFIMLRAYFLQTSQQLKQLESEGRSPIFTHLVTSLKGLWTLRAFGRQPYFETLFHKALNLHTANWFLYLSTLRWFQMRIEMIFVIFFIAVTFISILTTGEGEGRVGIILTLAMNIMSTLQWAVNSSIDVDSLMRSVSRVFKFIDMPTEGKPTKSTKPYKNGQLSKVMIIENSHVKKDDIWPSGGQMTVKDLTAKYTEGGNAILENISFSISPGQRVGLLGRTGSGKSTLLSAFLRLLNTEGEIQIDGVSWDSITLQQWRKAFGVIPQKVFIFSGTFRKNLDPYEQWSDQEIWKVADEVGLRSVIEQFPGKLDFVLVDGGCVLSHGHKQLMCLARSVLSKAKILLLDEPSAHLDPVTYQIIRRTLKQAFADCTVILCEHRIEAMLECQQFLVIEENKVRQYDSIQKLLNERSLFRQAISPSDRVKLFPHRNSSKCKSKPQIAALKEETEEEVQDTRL

One may read the EC50 as the concentration needed to bring the measured effect to its halfway point. Turning to `COCCN(C)c1ccc(-c2cc(C(=O)NS(C)(=O)=O)nc3c2c(C(C)C)nn3-c2cccc(N(C)C)c2)cc1` [Compound 82, 1-[3-(dimethylamino)phenyl]-N-(methanesulfonyl)-4-{4-[(2-methoxyethyl)(methyl)amino]phenyl}-3-(propan-2-yl)-1H-pyrazolo[3,4-b]pyridine-6-carboxamide], in test [1], the “% Activation” value is 535.93% and the EC50 was 383 nM. Also, in test [2], the “% Activation” value stood at 366.27% and the EC50 was determined as 472 nM.

Consider `CC(C)c1nn(-c2cccc(N(C)C)c2)c2nc(C(=O)NS(C)(=O)=O)cc(-c3ccc(N4CCC(C#N)CC4)nc3)c12` [Compound 83, 4-[6-(4-cyanopiperidin-1-yl)pyridin-3-yl]-1-[3-(dimethylamino)phenyl]-N-(methanesulfonyl)-3-(propan-2-yl)-1H-pyrazolo[3,4-b]pyridine-6-carboxamide], for which the “% Activation” value in test [1] is given as 567.7%; in test [2], 391.5%. Further, the concentration for a half-maximal effect (EC50) in test [1] was determined as 425 nM; in test [2] it was 547 nM.

Consider `COCCN(C)c1ccc(-c2cc(C(=O)NS(C)(=O)=O)nc3c2c(C(C)C)nn3-c2cccc(N(C)C)c2)cn1` [Compound 84, 1-[3-(dimethylamino)phenyl]-N-(methanesulfonyl)-4-{6-[(2-methoxyethyl)(methyl)amino]pyridin-3-yl}-3-(propan-2-yl)-1H-pyrazolo[3,4-b]pyridine-6-carboxamide], for which, in test [1], the “% Activation” value worked out at 468.2% and the EC50 was 408 nM. In addition, in test [2], the “% Activation” value was 311.7% and the EC50 was found to be 660 nM.

Regarding `COCCN(C)c1ccc(-c2cc(C(=O)NS(C)(=O)=O)nc3c2c(C(C)C)nn3-c2cccc(N3CCOCC3)c2)cc1` [Compound 88, N-(methanesulfonyl)-4-{4-[(2-methoxyethyl)(methyl)amino]phenyl}-1-[3-(morpholin-4-yl)phenyl]-3-(propan-2-yl)-1H-pyrazolo[3,4-b]pyridine-6-carboxamide], in test [1], the “% Activation” value was determined as 546.2% and the EC50 was 413 nM. Besides, in test [2], the “% Activation” value is listed as 389.73% and the EC50 is 474 nM.

Take `CC(C)c1nn(-c2cccc(N(C)C)c2)c2nc(C(=O)NS(C)(=O)=O)cc(-c3ccc(N(C)C4CCOCC4)nc3)c12` [Compound 89, 1-[3-(dimethylamino)phenyl]-N-(methanesulfonyl)-4-{6-[methyl(oxan-4-yl)amino]pyridin-3-yl}-3-(propan-2-yl)-1H-pyrazolo[3,4-b]pyridine-6-carboxamide]: in test [1], the “% Activation” value is on record as 609.48% and the half-maximal effective concentration (EC50) was found to be 396 nM. Moreover, in test [2], the “% Activation” value stood at 422.78% and the EC50 was 646 nM.

On to `CCS(=O)(=O)NC(=O)c1cc(-c2ccc(N(C)C3CCOCC3)nc2)c2c(C(C)C)nn(C3CCCCC3)c2n1` [Compound 90, 1-cyclohexyl-N-(ethanesulfonyl)-4-{6-[methyl(oxan-4-yl)amino]pyridin-3-yl}-3-(propan-2-yl)-1H-pyrazolo[3,4-b]pyridine-6-carboxamide], for which the “% Activation” value in test [1] was determined as 384.95%; in test [2] it was 163.75%. Also, the EC50 in test [1] was 389 nM; in test [2], 486 nM.

As for `CCS(=O)(=O)NC(=O)c1cc(-c2ccc(N(C)C)nc2)c2c(C3CC3)nn(C3CCCCC3)c2n1` [Compound 92, 1-cyclohexyl-3-cyclopropyl-4-[6-(dimethylamino)pyridin-3-yl]-N-(ethanesulfonyl)-1H-pyrazolo[3,4-b]pyridine-6-carboxamide], the entries for the “% Activation” value in test [1] and in test [2] were 367.67% and 175.77%, respectively. The figures for the EC50 in test [1] and in test [2] were 278 nM and 553 nM, respectively.

Take `CC(C)c1nn(C2CCCCC2)c2nc(C(=O)NS(C)(=O)=O)cc(-c3ccc(N4CCOC(C)(C)C4)nc3)c12` [Compound 94, 1-cyclohexyl-4-[6-(2,2-dimethylmorpholin-4-yl)pyridin-3-yl]-N-(methanesulfonyl)-3-(propan-2-yl)-1H-pyrazolo[3,4-b]pyridine-6-carboxamide]: the “% Activation” value is on record as 421.53% in test [1] and 193.5% in test [2]. The EC50 in test [1] came out at 342 nM; in test [2], 614 nM.

Take `CC(C)c1nn(-c2cccc(N3CCOCC3)c2)c2nc(C(=O)NS(C)(=O)=O)cc(-c3ccc(N(C)C4CCOCC4)cc3)c12` [Compound 97, N-(methanesulfonyl)-4-{4-[methyl(oxan-4-yl)amino]phenyl}-1-[3-(morpholin-4-yl)phenyl]-3-(propan-2-yl)-1H-pyrazolo[3,4-b]pyridine-6-carboxamide]: in test [1], the “% Activation” value came to 692.82% and the EC50 stood at 277 nM. In test [2], the “% Activation” value was found to be 444.85% and the EC50 amounted to 399 nM.

In the case of `CC(C)c1nn(C2CCCCC2)c2nc(C(=O)NS(C)(=O)=O)cc(-c3ccc(N4CCC(C)(C#N)CC4)nc3)c12` [Compound 98, 4-[6-(4-cyano-4-methylpiperidin-1-yl)pyridin-3-yl]-1-cyclohexyl-N-(methanesulfonyl)-3-(propan-2-yl)-1H-pyrazolo[3,4-b]pyridine-6-carboxamide], in test [1], the “% Activation” value is on record as 360.15% and the EC50 came to 393 nM. For the same molecule, in test [2], the “% Activation” value is given as 154% and the EC50 came to 556 nM.

In the case of `CC(C)c1nn(-c2cccc(N3CCOCC3)c2)c2nc(C(=O)NS(C)(=O)=O)cc(-c3cnc(N4CCC(C#N)CC4)nc3)c12` [Compound 99, 4-[2-(4-cyanopiperidin-1-yl)pyrimidin-5-yl]-N-(methanesulfonyl)-1-[3-(morpholin-4-yl)phenyl]-3-(propan-2-yl)-1H-pyrazolo[3,4-b]pyridine-6-carboxamide], the “% Activation” value in test [1] stood at 601.15%; in test [2], 414.8%. Moreover, the EC50 in test [1] was 337 nM; in test [2], 410 nM.

With `Cc1nn(-c2ccccc2)c2nc(C(=O)NS(C)(=O)=O)cc(-c3ccc(N4CCC(N(C)C)C4)cc3)c12` (stereo not drawn) [Compound 100, 4-{4-[3-(dimethylamino)pyrrolidin-1-yl]phenyl}-N-(methanesulfonyl)-3-methyl-1-phenyl-1H-pyrazolo[3,4-b]pyridine-6-carboxamide], in test [1], the “% Activation” value stood at 340.6% and the EC50 was 3220 nM. For the same molecule, in test [2], the “% Activation” value is given as 113% and the EC50 was found to be 2480 nM.

With `Cc1cccc(-n2nc(C(C)C)c3c(N4CCCCC4)cc(C(=O)NS(C)(=O)=O)nc32)c1` [Compound 101, N-(methanesulfonyl)-1-(3-methylphenyl)-4-(piperidin-1-yl)-3-(propan-2-yl)-1H-pyrazolo[3,4-b]pyridine-6-carboxamide], in test [1], the “% Activation” value is given as 455.4% and the EC50 is 409 nM. Moreover, in test [2], the “% Activation” value amounted to 254.85% and the concentration for a half-maximal effect (EC50) came to 839 nM.

For `CCS(=O)(=O)NC(=O)c1cc(N2CCCCC2)c2c(C(C)C)nn(-c3cccc(C)c3)c2n1` [Compound 102, N-(ethanesulfonyl)-1-(3-methylphenyl)-4-(piperidin-1-yl)-3-(propan-2-yl)-1H-pyrazolo[3,4-b]pyridine-6-carboxamide], in test [1], the “% Activation” value is listed as 458.75% and the concentration for a half-maximal effect (EC50) is 537 nM. In addition, in test [2], the “% Activation” value was 233.9% and the EC50 turned out to be 897 nM.

As to `CS(=O)(=O)NC(=O)c1cc(-c2ccc(N3CCC(C#N)CC3)cc2)c2c(C3CCC3)nn(C3CCCCC3)c2n1` [Compound 103, 4-[4-(4-cyanopiperidin-1-yl)phenyl]-3-cyclobutyl-1-cyclohexyl-N-(methanesulfonyl)-1H-pyrazolo[3,4-b]pyridine-6-carboxamide], the “% Activation” value in test [1] is reported as 501.03%; in test [2], 263.8%. The concentration giving a half-maximal response (EC50) is 409 nM in test [1] and 536 nM in test [2].

Take `CC(C)c1nn(-c2cccc(N3CC(O)C3)c2)c2nc(C(=O)NS(C)(=O)=O)cc(-c3ccc(N4CCOCC4)cc3)c12` [Compound 105, 1-[3-(3-hydroxyazetidin-1-yl)phenyl]-N-(methanesulfonyl)-4-[4-(morpholin-4-yl)phenyl]-3-(propan-2-yl)-1H-pyrazolo[3,4-b]pyridine-6-carboxamide]: in test [1], the “% Activation” value came out at 457.85% and the EC50 came to 699 nM. In test [2], the “% Activation” value turned out to be 258.1% and the EC50 came out at 908 nM.

Turning to `COC1CCN(c2ccc(-c3cc(C(=O)NS(C)(=O)=O)nc4c3c(C(C)C)nn4C3CCCCC3)cn2)C1` (stereo not drawn) [Compound 106, 1-cyclohexyl-N-(methanesulfonyl)-4-[6-(3-methoxypyrrolidin-1-yl)pyridin-3-yl]-3-(propan-2-yl)-1H-pyrazolo[3,4-b]pyridine-6-carboxamide], in test [1], the “% Activation” value was determined as 348.1% and the EC50 came out at 394 nM. Also, in test [2], the “% Activation” value is 162.75% and the half-maximal effective concentration (EC50) was determined as 526 nM.

With `COC(=O)N1CC(c2nn(-c3cc(F)cc(F)c3)c3nc(C(=O)NS(C)(=O)=O)cc(-c4ccc(NC(C)=O)cc4)c23)C1` [Compound 107, methyl 3-{4-(4-acetamidophenyl)-1-(3,5-difluorophenyl)-6-[(methanesulfonyl)carbamoyl]-1H-pyrazolo[3,4-b]pyridin-3-yl}azetidine-1-carboxylate], in test [1], the “% Activation” value is on record as 219.4% and the EC50 was found to be 3340 nM. For the same molecule, in test [2], the “% Activation” value turned out to be 64.54% and the EC50 was 3340 nM.
